Assay results published in the supplement of paper PMC11208160.

Assay: recombinant barcode read abundance after kanamycin selection (control-corrected) (log10(CPM+1)); higher = more efficient recombination; sequences stand for … in AGTGCAGAGAAAATCGGCCAGTTTTCTCTGCCTGCAGTCCGCATGCCGT…AGATTTATGCAGCGGACTGCCTTTCTCCCAAAGTGATAAACCGGACAGTATCATGGACCGGTTTTCCCGGTAATCCGTATTTGCAAGGTTGGTTTCACT; site = the 11-nt target
How it was run: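 Recombination efficiency was calculated from barcode counts at recombinant junctions, normalized to counts per million, averaged and corrected by the control. Each value is given as log10(CPM+1). The constructs were Gibson-cloned oligos (promoter, target, barcode, J23119-driven first 104 bridge RNA bases) in a vector with the remaining 73 bp and a T7-inducible recombinase, co-electroporated into E. coli with a donor plasmid and plated in duplicate on chloramphenicol/ampicillin LB agar (control) or chloramphenicol/ampicillin/kanamycin with 0.1 mM IPTG.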
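Also: IS621 recombinase and bridge RNA in Escherichia coli cells.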

| Sequence | recombinant barcode read abundance (log10) |
| --- | --- |
| CTCCATGCTTGGGTTCTAACCTGTTGCCT (site CTCCATACTAG) | 0.325 |
| CTCCATGCTTGGGTTCTAACCTGTTGCCT (site CTCCATCCTAG) | 0.312 |
| CTCCATGCTTGGGTTCTAACCTGTTGCCT (site CTCCATGCTAG) | 1.19 |
| CTCCATGCTTGGGTTCTAACCTGTTGCCT (site CTCCATTCTAG) | 0.0894 |
| CTCCATTCTTGGGTTCTAACCTGTTGCCT (site CTCCATACTAG) | 0.0751 |
| CTCCATTCTTGGGTTCTAACCTGTTGCCT (site CTCCATCCTAG) | 0.314 |
| CTCCATTCTTGGGTTCTAACCTGTTGCCT (site CTCCATGCTAG) | 0.129 |
| CTCCATTCTTGGGTTCTAACCTGTTGCCT (site CTCCATTCTAG) | 0.739 |
| CTCCCGACTTGGGTTCTAACCTGTTGCGC (site AGAGTAGCTTA) | 0.119 |
| CTCCCGACTTGGGTTCTAACCTGTTGCGC (site CTCCCGACTGC) | 2.08 |
| CTCCCTGCTTGGGTTCTAACCTGTTGCCT (site CTCCCTGCTAG) | 1.1 |
| CTCCCTGCTTGGGTTCTAACCTGTTGCCT (site GAGGTCCCTCC) | 0.0158 |
| CTCCGCCCTTGGGTTCTAACCTGTTGCTT (site CTCCGACCTAA) | 0.121 |
| CTCCGCCCTTGGGTTCTAACCTGTTGCTT (site CTCCGCCCTAA) | 0.578 |
| CTCCGCCCTTGGGTTCTAACCTGTTGCTT (site CTCCGGCCTAA) | 0.106 |
| CTCCGCCCTTGGGTTCTAACCTGTTGCTT (site CTCCGTCCTAA) | 0.0629 |
| CTCCGCTCTTGGGTTCTAACCTGTTGCCT (site ATCCGCTCTAG) | 0.211 |
| CTCCGCTCTTGGGTTCTAACCTGTTGCCT (site CTCCGCTCTAG) | 2.28 |
| CTCCGCTCTTGGGTTCTAACCTGTTGCCT (site GTCCGCTCTAG) | 0.0686 |
| CTCCGCTCTTGGGTTCTAACCTGTTGCCT (site TTCCGCTCTAG) | 0.113 |
| CTCCGTCCTTGGGTTCTAACCTGTTGCGT (site CTCCGCCCTAG) | 0.23 |
| CTCCGTCCTTGGGTTCTAACCTGTTGCGT (site CTCCGTCCTAC) | 2.54 |

| Sequence | recombinant barcode read abundance (log10) |
| --- | --- |
| CTCGAATCTTGGGTTCTAACCTGTTGCTT (site CTCGAATCTAA) | 0.897 |
| CTCGAATCTTGGGTTCTAACCTGTTGCTT (site GGGATCCCTCC) | 0.101 |
| CTCGACCCTTGGGTTCTAACCTGTTGCAT (site CTCGACCCTAT) | 2.4 |
| CTCGACCCTTGGGTTCTAACCTGTTGCAT (site GGGCCTGCTTG) | 1.66 |
| CTCGATTCTTGGGTTCTAACCTGTTGCAT (site CTCAATTCTAT) | 0.355 |
| CTCGATTCTTGGGTTCTAACCTGTTGCAT (site CTCCATTCTAT) | 0.194 |
| CTCGATTCTTGGGTTCTAACCTGTTGCAT (site CTCGATTCTAT) | 1.66 |
| CTCGATTCTTGGGTTCTAACCTGTTGCAT (site CTCTATTCTAT) | 0.213 |
| CTCGGTTCTTGGGTTCTAACCTGTTGCCT (site CTCGGTACTTG) | 0.128 |
| CTCGGTTCTTGGGTTCTAACCTGTTGCCT (site CTCGGTTCTAG) | 1.41 |
| CTCGTAACTTGGGTTCTAACCTGTTGCCT (site CTCGTAACTAG) | 0.361 |
| CTCGTAACTTGGGTTCTAACCTGTTGCCT (site CTCGTCACTAG) | 0.0602 |
| CTCGTAACTTGGGTTCTAACCTGTTGCCT (site CTCGTGACTAG) | 0.123 |
| CTCGTAACTTGGGTTCTAACCTGTTGCCT (site CTCGTTACTAG) | 1.13 |
| CTCTACACTTGGGTTCTAACCTGTTGCTG (site CTCGACACTCA) | 0.116 |
| CTCTACACTTGGGTTCTAACCTGTTGCTG (site CTCTACACTCA) | 1.13 |
| CTCTACTCTTGGGTTCTAACCTGTTGCCT (site CTCTACTCTAG) | 2.02 |
| CTCTACTCTTGGGTTCTAACCTGTTGCCT (site TTCTACTCTAG) | 0.0366 |
| CTCTAGACTTGGGTTCTAACCTGTTGCTG (site CTCAAGACTCC) | 0.0495 |
| CTCTAGACTTGGGTTCTAACCTGTTGCTG (site CTCTAGACTCA) | 1.82 |
| CTCTAGGCTTGGGTTCTAACCTGTTGCCT (site CTCTAGGCTAG) | 0.0135 |
| CTCTAGGCTTGGGTTCTAACCTGTTGCCT (site CTCTCGGCTAG) | 0.186 |

| Sequence | recombinant barcode read abundance (log10) |
| --- | --- |
| CTCTAGGCTTGGGTTCTAACCTGTTGCCT (site CTCTGGGCTAG) | 0.202 |
| CTCTAGGCTTGGGTTCTAACCTGTTGCCT (site CTCTTGGCTAG) | 0.13 |
| CTCTCATCTTGGGTTCTAACCTGTTGCCT (site CTCTCATCTAA) | 0.125 |
| CTCTCATCTTGGGTTCTAACCTGTTGCCT (site CTCTCATCTAG) | 0.149 |
| CTCTCGTCTTGGGTTCTAACCTGTTGCCT (site CTCTCGTCTAA) | 0.11 |
| CTCTCGTCTTGGGTTCTAACCTGTTGCCT (site CTCTCGTCTAC) | 0.119 |
| CTCTCGTCTTGGGTTCTAACCTGTTGCCT (site CTCTCGTCTAG) | 0.944 |
| CTCTCGTCTTGGGTTCTAACCTGTTGCCT (site CTCTCGTCTAT) | 0.0858 |
| CTCTCTTCTTGGGTTCTAACCTGTTGCCT (site CTCTCTCCTAG) | 0.0216 |
| CTCTCTTCTTGGGTTCTAACCTGTTGCCT (site CTCTCTTCTAG) | 0.114 |
| CTCTGAGCTTGGGTTCTAACCTGTTGCAG (site ACTGCTCCTAG) | 0.0584 |
| CTCTGAGCTTGGGTTCTAACCTGTTGCAG (site CTCTGAGCTCT) | 0.538 |
| CTCTGCTCTTGGGTTCTAACCTGTTGCTT (site CACTCCTCTAA) | 0.0518 |
| CTCTGCTCTTGGGTTCTAACCTGTTGCTT (site CTCTGCTCTAA) | 0.245 |
| CTCTGTCCTTGGGTTCTAACCTGTTGCTG (site CTCTGTCCTCA) | 0.374 |
| CTCTGTCCTTGGGTTCTAACCTGTTGCTG (site GCTGAGACTAC) | 0.0997 |
| CTCTTCCCTTGGGTTCTAACCTGTTGCTT (site CTATTCCCTCA) | 0.155 |
| CTCTTCCCTTGGGTTCTAACCTGTTGCTT (site CTCTTCCCTAA) | 0.594 |
| CTCTTGTCTTGGGTTCTAACCTGTTGCTG (site CTCGTGTCTCT) | 0.0114 |
| CTCTTGTCTTGGGTTCTAACCTGTTGCTG (site CTCTTGTCTCA) | 1.01 |
| CTGAGAGCTTGGGTTCTAACCTGTTGCCT (site CAGAGAGCTAG) | 0.319 |
| CTGAGAGCTTGGGTTCTAACCTGTTGCCT (site CCGAGAGCTAG) | 0.058 |

| Sequence | recombinant barcode read abundance (log10) |
| --- | --- |
| CTGAGAGCTTGGGTTCTAACCTGTTGCCT (site CGGAGAGCTAG) | 0.156 |
| CTGAGAGCTTGGGTTCTAACCTGTTGCCT (site CTGAGAGCTAG) | 1.61 |
| CTGAGCCCTTGGGTTCTAACCTGTTGCAT (site CGGAGCCCTCT) | 0.0964 |
| CTGAGCCCTTGGGTTCTAACCTGTTGCAT (site CTGAGCCCTAT) | 1.09 |
| CTGAGGACTTGGGTTCTAACCTGTTGCCT (site ATGAGGACTAG) | 0.0813 |
| CTGAGGACTTGGGTTCTAACCTGTTGCCT (site CTGAGGACTAG) | 1.29 |
| CTGAGGACTTGGGTTCTAACCTGTTGCCT (site GTGAGGACTAG) | 0.0454 |
| CTGAGGACTTGGGTTCTAACCTGTTGCCT (site TTGAGGACTAG) | 0.325 |
| CTGATCACTTGGGTTCTAACCTGTTGCCT (site CTGATAACTAG) | 0.0217 |
| CTGATCACTTGGGTTCTAACCTGTTGCCT (site CTGATCACTAG) | 1.03 |
| CTGATCACTTGGGTTCTAACCTGTTGCCT (site CTGATGACTAG) | 0.0708 |
| CTGATCACTTGGGTTCTAACCTGTTGCCT (site CTGATTACTAG) | 0.202 |
| CTGCACCCTTGGGTTCTAACCTGTTGCAG (site CTGCACCCTCT) | 0.477 |
| CTGCACCCTTGGGTTCTAACCTGTTGCAG (site GCGCACCCTCT) | 0.0743 |
| CTGCATACTTGGGTTCTAACCTGTTGCCT (site CAGCATACTAG) | 0.17 |
| CTGCATACTTGGGTTCTAACCTGTTGCCT (site CCGCATACTAG) | 0.217 |
| CTGCATACTTGGGTTCTAACCTGTTGCCT (site CGGCATACTAG) | 0.0131 |
| CTGCATACTTGGGTTCTAACCTGTTGCCT (site CTGCATACTAG) | 0.86 |
| CTGCGCCCTTGGGTTCTAACCTGTTGCCT (site CTGAGCCCTAG) | 0.0517 |
| CTGCGCCCTTGGGTTCTAACCTGTTGCCT (site CTGCGCCCTAG) | 1.1 |
